# Where two headings read alike, the source gives them in different places.
# System: A549 cells
# Experiment: Cell proliferation assay (CellTiter-Glo), cells with K-Ras G12S mutation
# Format: cell-based
# Settings: Homo sapiens, read-out: Inhibition of A549 Cells (IC50)
# Description: A549 (ATCC CRL-185) and LS123 (ATCC CRL-255) cell lines comprise a G12S mutation and can be used to assess Ras cellular signaling in vitro, e.g., in response to treatment with a compound described herein. A549 culture medium is prepared with RPMI-1640 and 10% heat-inactivated FBS. LS123 culture medium is prepared with RPMI-1640 and 10% heat-inactivated FBS. A CellTiter-Glo (CTG) luminescent based assay (Promega) is used to assess growth of the cells, as a measurement of the ability of the compounds herein to inhibit Ras signaling in the cells. The cells (e.g., 800 per well) are seeded in their respective culture medium in standard tissue culture-treated 384-well format plates (Falcon #08-772-116) or ultra-low attachment surface 384-well format plates (S-Bio #MS-9384WZ). The day after plating, cells are treated with a dilution series (e.g., a 10 point 3-fold dilution series) of the compounds herein (e.g., approximately 40 μl final volume per well). Cell viability can be monitored (e.g., approximately 6 days later) according to the manufacturer's recommended instructions, where CellTiter-Glo reagent is added (e.g., approximately 10 μl), vigorously mixed, covered, and placed on a plate shaker (e.g., approximately for 20 min) to ensure sufficient cell lysis prior to assessment of luminescent signal. The IC50 values are determined using the four parameter fit. The resulting IC50 value is a measurement of the ability of the test compound to reduce cell growth of Ras-driven cells (e.g., tumor cell lines) in vitro and/or in vivo.
IC50 (≤500 nM) [nM],IC50 (500 nM to 5 μM (mixed units)) [nM],Structure (SMILES)
–,500 to 5000,"CC(C)[C@H]1N(C(=O)n2cnc(Cl)n2)C[C@]12CC[C@@H](C)N(c1nc(OC[C@@]34CCCN3C[C@H](F)C4)nc3c(F)c(-c4ccc(F)c5sc(N)c(C#N)c45)c(Cl)cc13)C2 [Compound 153, 2-amino-4-(6-chloro-4-((1R,4R,7R)-2-(3-chloro-1H-1,2,4-triazole-1-carbonyl)-1-isopropyl-7-methyl-2,6-diazaspiro[3.5]nonan-6-yl)-8-fluoro-2-(((2R,7aS)-2-fluorotetrahydro-1H-pyrrolizin-7a(5H)-yl)methoxy)quinazolin-7-yl)-7-fluorobenzo[b]thiophene-3-carbonitrile]"
≤ 500,–,"CC(C)[C@H]1N(C(=O)n2cnc(C#N)n2)C[C@]12CC[C@H](C)N(c1nc(OC[C@@]34CCCN3C[C@H](F)C4)nc3c(F)c(-c4ccc(F)c5sc(N)c(C#N)c45)c(Cl)cc13)C2 [Compound 227, 1-((1R,4R,7S)-6-(7-(2-amino-3-cyano-7-fluorobenzo[b]thiophen-4-yl)-6-chloro-8-fluoro-2-(((2R,7aS)-2-fluorotetrahydro-1H-pyrrolizin-7a(5H)-yl)methoxy)quinazolin-4-yl)-1-isopropyl-7-methyl-2,6-diazaspiro[3.5]nonane-2-carbonyl)-1H-1,2,4-triazole-3-carbonitrile]"
≤ 500,–,"CN(C[C@@H]1CN(C(=O)n2cnc(F)n2)[C@@H]1C1(C)CC1)c1nc(OC[C@@]23CCCN2C[C@H](F)C3)nc2c(F)c(-c3ccc(F)c4sc(N)c(C#N)c34)c(Cl)cc12 [Compound 130, 2-amino-4-(6-chloro-8-fluoro-4-((((2S,3R)-1-(3-fluoro-1H-1,2,4-triazole-1-carbonyl)-2-(1-methylcyclopropyl)azetidin-3-yl)methyl)(methyl)amino)-2-(((2R,7aS)-2-fluorotetrahydro-1H-pyrrolizin-7a(5H)-yl)methoxy)quinazolin-7-yl)-7-fluorobenzo[b]thiophene-3-carbonitrile]"
≤ 500,–,"N#Cc1c(N)sc2c(F)ccc(-c3c(Cl)cc4c(N5CCC(N(C(=O)n6cncn6)C6CC6)C5)nc(OC[C@@]56CCCN5C[C@H](F)C6)nc4c3F)c12 (stereo partly drawn) [Compound 135, N-(1-(7-(2-amino-3-cyano-7-fluorobenzo[b]thiophen-4-yl)-6-chloro-8-fluoro-2-(((2R,7aS)-2-fluorotetrahydro-1H-pyrrolizin-7a(5H)-yl)methoxy)quinazolin-4-yl)pyrrolidin-3-yl)-N-cyclopropyl-1H-1,2,4-triazole-1-carboxamide]"
≤ 500,–,"CC(C)[C@@H]1[C@H](CN(C)c2nc(OC[C@@]34CCCN3C[C@H](F)C4)nc3c(F)c(-c4ccc(F)c5sc(N)c(C#N)c45)c(Cl)cc23)CN1C(=O)n1cnc(F)n1 [Compound 144, 2-amino-4-(6-chloro-8-fluoro-4-((((2R,3R)-1-(3-fluoro-1H-1,2,4-triazole-1-carbonyl)-2-isopropylazetidin-3-yl)methyl)(methyl)amino)-2-(((2R,7aS)-2-fluorotetrahydro-1H-pyrrolizin-7a(5H)-yl)methoxy)quinazolin-7-yl)-7-fluorobenzo[b]thiophene-3-carbonitrile]"
≤ 500,–,"CC1([C@H]2N(C(=O)n3cnc(C(F)F)n3)C[C@]23CCCN(c2nc(OC[C@@]45CCCN4C[C@H](F)C5)nc4c(F)c(-c5ccc(F)c6sc(N)c(C#N)c56)c(Cl)cc24)C3)CC1 [Compound 234, 2-amino-4-(6-chloro-4-((1R,4R)-2-(3-(difluoromethyl)-1H-1,2,4-triazole-1-carbonyl)-1-(1-methylcyclopropyl)-2,6-diazaspiro[3.5]nonan-6-yl)-8-fluoro-2-(((2R,7aS)-2-fluorotetrahydro-1H-pyrrolizin-7a(5H)-yl)methoxy)quinazolin-7-yl)-7-fluorobenzo[b]thiophene-3-carbonitrile]"
≤ 500,–,"CCN(C(=O)n1cnc(Cl)n1)[C@@H]1CCN(c2nc(OC[C@@]34CCCN3C[C@H](F)C4)nc3c(F)c(-c4ccc(F)c5sc(N)c(C#N)c45)c(Cl)cc23)[C@@H]1C (atropisomer, axis not shown; (aS)) [Compound 176, N-((2R,3R)-1-(7-((R)-2-amino-3-cyano-7-fluorobenzo[b]thiophen-4-yl)-6-chloro-8-fluoro-2-(((2R,7aS)-2-fluorotetrahydro-1H-pyrrolizin-7a (5H)-yl)methoxy)quinazolin-4-yl)-2-methylpyrrolidin-3-yl)-3-chloro-N-ethyl-1H-1,2,4-triazole-1-carboxamide]"

# Second part, the compound before the results:
Structure (SMILES),IC50 (≤500 nM) [nM],IC50 (500 nM to 5 μM (mixed units)) [nM]
"CCC1N(C(=O)n2cncn2)CC12CN(c1nc(OC[C@@]34CCCN3C[C@H](F)C4)nc3c(F)c(-c4ccc(F)c5sc(N)c(C#N)c45)c(Cl)cc13)CCO2 (stereo partly drawn) [Compound 112, 2-amino-4-(6-chloro-4-(1-ethyl-2-(1H-1,2,4-triazole-1-carbonyl)-5-oxa-2,8-diazaspiro[3.5]nonan-8-yl)-8-fluoro-2-(((2R,7aS)-2-fluorotetrahydro-1H-pyrrolizin-7a(5H)-yl)methoxy)quinazolin-7-yl)-7-fluorobenzo[b]thiophene-3-carbonitrile]",≤ 500,–
"CC1([C@H]2N(C(=O)n3cnc(F)n3)C[C@]23CCCCN(c2nc(OC[C@@]45CCCN4C[C@H](F)C5)nc4c(F)c(-c5ccc(F)c6sc(N)c(C#N)c56)c(Cl)cc24)C3)CC1 (atropisomer, axis not shown; (aS)) [Compound 193, (R)-2-amino-4-(6-chloro-8-fluoro-4-((1R,4R)-2-(3-fluoro-1H-1,2,4-triazole-1-carbonyl)-1-(1-methylcyclopropyl)-2,6-diazaspiro[3.6]decan-6-yl)-2-(((2R,7aS)-2-fluorotetrahydro-1H-pyrrolizin-7a (5H)-yl)methoxy)quinazolin-7-yl)-7-fluorobenzo[b]thiophene-3-carbonitrile]",≤ 500,–
"CN(C[C@@H]1CN(C(=O)n2cnc(C#N)n2)[C@@H]1C1(C)CC1)c1nc(OC[C@@]23CCCN2C[C@H](F)C3)nc2c(F)c(-c3ccc(F)c4sc(N)c(C#N)c34)c(Cl)cc12 [Compound 237, 1-((2S,3R)-3-(((7-(2-amino-3-cyano-7-fluorobenzo[b]thiophen-4-yl)-6-chloro-8-fluoro-2-(((2R,7aS)-2-fluorotetrahydro-1H-pyrrolizin-7a(5H)-yl)methoxy)quinazolin-4-yl)(methyl)amino)methyl)-2-(1-methylcyclopropyl)azetidine-1-carbonyl)-1H-1,2,4-triazole-3-carbonitrile]",≤ 500,–
"CC1CC2C(CCCN2c2nc(OC[C@@]34CCCN3C[C@H](F)C4)nc3c(F)c(-c4ccc(F)c5sc(N)c(C#N)c45)c(Cl)cc23)N1C(=O)n1cncn1 (stereo partly drawn) [Compound 113, 2-amino-4-(6-chloro-8-fluoro-2-(((2R,7aS)-2-fluorotetrahydro-1H-pyrrolizin-7a(5H)-yl)methoxy)-4-(2-methyl-1-(1H-1,2,4-triazole-1-carbonyl)octahydro-4H-pyrrolo[3,2-b]pyridin-4-yl)quinazolin-7-yl)-7-fluorobenzo[b]thiophene-3-carbonitrile]",–,500 to 5000
"C[C@H]1CC[C@]2(CN(C(=O)n3cnc(Cl)n3)[C@@H]2C2CCC2)CN1c1nc(OC[C@@]23CCCN2C[C@H](F)C3)nc2c(F)c(-c3ccc(F)c4sc(N)c(C#N)c34)c(Cl)cc12 [Compound 146, 2-amino-4-(6-chloro-4-((1R,4R,7S)-2-(3-chloro-1H-1,2,4-triazole-1-carbonyl)-1-cyclobutyl-7-methyl-2,6-diazaspiro[3.5]nonan-6-yl)-8-fluoro-2-(((2R,7aS)-2-fluorotetrahydro-1H-pyrrolizin-7a(5H)-yl)methoxy)quinazolin-7-yl)-7-fluorobenzo[b]thiophene-3-carbonitrile]",≤ 500,–
"CC(C)[C@H]1N(C(=O)n2cnc(C(F)F)n2)C[C@@]12CN(c1nc(OC[C@@]34CCCN3C[C@H](F)C4)nc3c(F)c(-c4ccc(F)c5sc(N)c(C#N)c45)c(Cl)cc13)CCO2 [Compound 138, 2-amino-4-(6-chloro-4-((1R,4S)-2-(3-(difluoromethyl)-1H-1,2,4-triazole-1-carbonyl)-1-isopropyl-5-oxa-2,8-diazaspiro[3.5]nonan-8-yl)-8-fluoro-2-(((2R,7aS)-2-fluorotetrahydro-1H-pyrrolizin-7a(5H)-yl)methoxy)quinazolin-7-yl)-7-fluorobenzo[b]thiophene-3-carbonitrile]",≤ 500,–
"CN(C[C@@H]1CN(C(=O)n2cnc(C#N)n2)[C@@H]1C1CCC1)c1nc(OC[C@@]23CCCN2C[C@H](F)C3)nc2c(F)c(-c3ccc(F)c4sc(N)c(C#N)c34)c(Cl)cc12 (atropisomer, axis not shown; (aS)) [Compound 150, 1-((2R,3R)-3-(((7-((R)-2-amino-3-cyano-7-fluorobenzo[b]thiophen-4-yl)-6-chloro-8-fluoro-2-(((2R,7aS)-2-fluorotetrahydro-1H-pyrrolizin-7a (5H)-yl)methoxy)quinazolin-4-yl)(methyl)amino)methyl)-2-cyclobutylazetidine-1-carbonyl)-1H-1,2,4-triazole-3-carbonitrile]",≤ 500,–
"CN(CC1(C)CCN1C(=O)n1cnc(Cl)n1)c1nc(OC[C@@]23CCCN2C[C@H](F)C3)nc2c(F)c(-c3ccc(F)c4sc(N)c(C#N)c34)c(Cl)cc12 (single isomer, unassigned) [Compound 183]",–,500 to 5000
